Results from article PMC2719696, “Kinetics and Cellular Site of Glycolipid Loading Control the Outcome of Natural Killer T Cell Activation” (Immunity, 2009).

Tested on: splenocytes
Assay: MβCD treatment of glycolipid-pulsed DCs, stimulation of autologous splenocytes in vitro
Type: cell-based, C57BL/6 mice
Conditions: DCs pulsed 18 hr, 10 mM MβCD 15 min, 24 hr culture
Method: Figure 7 Functional Consequences of Membrane Lipid Raft Association of Glycolipid-Loaded CD1d Molecules (A) C57BL/6 BMDCs were pulsed for 18 hr with the indicated glycolipids, washed, and incubated for 15 min in medium alone (hatched bars) or medium containing 10 mM MβCD (solid bars). Cells were then fixed (1% paraformaldehyde) and used for stimulating autologous splenocytes for 24 hr, after which supernatant concentrations of IFN-γ and IL-4 were measured. Dotted lines indicate the background levels of cytokines in cultures with BMDC pulsed with vehicle only. Means and standard deviations for triplicate cultures are shown, and results are representative of three experiments. ^∗∗p < 0.01 (ANOVA, Bonferroni post-test). (B) Effect of MβCD on in vivo presentation of αGalCer analogs. Splenic DCs were pulsed ex vivo with the indicated glycolipids for 18 hr and then incubated for 15 min in medium without (−, hatched bars) or with 10 mM MβCD (+, solid bars). After extensive washing, the cells were injected i.p. into naive C57BL/6 mice (10^6 cells/mouse). Serum was assayed for IL-4 at 2 hr and for IFN-γ at 24 hr postinjection. Data shown are means and standard deviations for pooled data from two experiments that had three mice per group. ^∗∗p < 0.01 (ANOVA, Bonferroni post-test); NS, not significant (p > 0.05).
For in vitro stimulation, murine iNKT hybridomas at 5 × 10^4 cells/well in 96-well plates were stimulated with an equal number of either JAWS II cells or transfected A20 cells in complete medium with glycolipids for 12 hr at 37°C, and levels of murine IL-2 secretion were determined. For some experiments, APCs were preincubated with glycolipids for 12 hr or fixed with paraformaldehyde (1% for 2 min at RT) prior to the addition of iNKT cell hybridomas. For in vitro stimulation of murine splenic iNKT cells, splenocytes from BALB/c or C57BL/6 mice were plated at 5 × 10^5 cells per well in complete medium in 96-well plates and stimulated with glycolipids for 48 hr at 37°C. Subsequently the levels of IL-4, IL-13, and IFN-γ in culture supernatants were quantified by capture ELISA. For assays with methyl-β-cyclodextrin (MβCD) treatment of APCs, we prepared splenic DCs with a CD11c^+ cell isolation kit from Miltenyi Biotech from mice that had been injected s.c. 14 days previously with 10^5 Flt3-ligand-secreting B16 melanoma cells to increase the yield ([Mach et al., 2000]). Purified CD11c^+ cells were cultured in complete medium for 18 hr with glycolipids (100 nM) as indicated, washed, and incubated at 37°C for 15 min in medium with or without 10 mM MβCD (Sigma-Aldrich) and subsequently fixed (1% paraformaldehyde) and cultured in 96-well plates at 2 × 10^5 cells/well with autologous splenocytes (4 × 10^5 cells per well). […]

Row | SMILES | effect of MβCD treatment of pulsed DCs on stimulation of IFN-γ production by splenocytes | effect of MβCD treatment of pulsed DCs on stimulation of IL-4
1 | CCCCCCCCCCCCCCC(O)C(O)C(COC1OC(CO)C(O)C(O)C1O)NC(=O)CCCCCCCCC (stereo not shown) [αGalCer-C10:0] | unaffected by MβCD | –
2 | CCCCCC=CCC=CCCCCCCCCCC(=O)NC(COC1OC(CO)C(O)C(O)C1O)C(O)C(O)CCCCCCCCCCCCCC (stereo not shown) [αGalCer-C20:2] | unaffected by MβCD | –
3 | CCCCCCCCCCCCCCCCCCCCCCCCCC(=O)NC(COC1OC(CO)C(O)C(O)C1O)C(O)C(O)CCCCCCCCCCCCCC (stereo not shown) [αGalCer-C26:0, reference compound] | markedly reduced | no effect
